Measurements as given in patent US20260325605A1, “INHIBITORS” (Zealand Pharma A/S, priority 2022, published 2026).

How the values were obtained:
[1] = Example 6: Pharmacokinetic characterisation after s.c. administration; assay type: in vivo, rat (Sprague Dawley or Wistar); settings: rat, 70 nmol/kg
Procedure, shortened: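 Male Sprague Dawley or Wistar rats (about 250-350 g) received a single s.c. dose of 70 nmol/kg in 10 mM phosphate, 0.8% NaCl, 0.05% Polysorbate 20, pH 6.0. Plasma sampled from 15 min to 4 h, analysed by SPE and LC-MS/MS; non-compartmental AUCinf, Cmax and Tmax from mean concentrations.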

[2] = system: collagen-induced arthritis in rats; test: Example 9: Rat collagen-induced arthritis (CIA) model, clinical score; assay type: in vivo, rat (Lewis); design: key: qualitative severity score summed over four paws, maximum 16
Experimental: Vehicle: 10 mM phosphate pH 6+0.8% NaCl+0.05% polysorbate 20
Peptide: Peptide 100 is formulated in vehicle at 50 nmol/mL. Dosing volume was individually adjusted according to the body weight of each animal to reach the target dose of peptide 100 of 100 nmol/kg.
The animal care facility employed is accredited by AAALAC. Female Lewis rats, weighing 180±20 g at delivery were used for this study. Following arrival in the animal facility, all animals were subjected to a general health evaluation. An acclimation period of 1 day was allowed before the beginning of the study.
Animals were grouped into 9 each based on their body weight. All animals were challenged with porcine type-II collagen with incomplete Freund's adjuvant on day 1 (0.2 mg/0.2 mL/rat, subcutaneously at the base of the tail) and boosted on day 7 (0.1 mg/0.1 mL/rat, s.c.). In the study dexamethasone given daily PO at 0.3 mg/kg was used as a positive control.
From day 12 to day 30, peptide 100 was administered as a single bolus either daily (QD), every third day (Q3D) or every fifth day (Q5D) subcutaneously into the flank. […] The peptide and vehicle were dosed at a volume of 2 mL/kg. Dosing volume was individually adjusted according to the body weight of each animal to reach the target dose of formulation 1 of 100 nmol/kg.
Disease was assessed by using a qualitative severity score system (see below, maximum score of 16) on days 1, 7, 10, 12 (before dosing), 13, 14, 15, 16, 17, 18, 19, 20, 21, 22, 24, 26 and 28 before peptide treatment and one hour after treatment on day 30.
The disease severity score is based on the following:
The ability of Kv1.3 inhibitor treatment to reduce chronic inflammation in arthritis was investigated by comparing the response in rats (n=9 animals/group) treated with vehicle to that of rats treated with peptide 100 daily, every third day or every fifth day. The severity of arthritis was determined by summation of the disease score on all four paws from day 12 to day 30 for each animal.

In the case of “H-P[Nle]E[Nle]RC(1)SASVEC(2)KQKC(3)LAAIGSIFGKC(1)[Nle]NKKC(2)KC(3)YPR-OH [Peptide 100]”, the AUCINF ([1]; plasma) is reported as 0.112 µM·h, the Cmax ([1]; plasma) is reported as 52.6 nM and the T1/2 ([1]; plasma terminal elimination half-life) is reported as 1.04 h. For the same substance, the Mean clinical score ([2]; 100 nmol/kg s.c. daily, every third day or every fifth day, day 12 to day 30, in words) was “reduction of the mean clinical score with all dosing regimens”, the Mean clinical score ([2]; Q3D SC 100 nmol/kg, day 12) was 0.8 and the Mean clinical score ([2]; Q3D SC 100 nmol/kg, day 13) was 2.0. For the same substance, the Mean clinical score ([2]; Q3D SC 100 nmol/kg, day 14) was 4.1, the Mean clinical score ([2]; Q3D SC 100 nmol/kg, day 15) was 4.4 and the Mean clinical score ([2]; Q3D SC 100 nmol/kg, day 16) was 5.0. The Mean clinical score ([2]; Q3D SC 100 nmol/kg, day 17) was 5.6, the Mean clinical score ([2]; Q3D SC 100 nmol/kg, day 18) was 6.4 and the Mean clinical score ([2]; Q3D SC 100 nmol/kg, day 19) was 6.6. It also gave a Mean clinical score ([2]; Q3D SC 100 nmol/kg, day 20) of 7.2, a Mean clinical score ([2]; Q3D SC 100 nmol/kg, day 21) of 7.3 and a Mean clinical score ([2]; Q3D SC 100 nmol/kg, day 22) of 8.0. The Mean clinical score ([2]; Q3D SC 100 nmol/kg, day 24) was 8.2, the Mean clinical score ([2]; Q3D SC 100 nmol/kg, day 26) was 8.4 and the Mean clinical score ([2]; Q3D SC 100 nmol/kg, day 28) was 9.0. It also gave a Mean clinical score ([2]; Q3D SC 100 nmol/kg, day 30) of 10.0, a Mean clinical score ([2]; Q5D SC 100 nmol/kg, day 12) of 2.4 and a Mean clinical score ([2]; Q5D SC 100 nmol/kg, day 13) of 3.3. The Mean clinical score ([2]; Q5D SC 100 nmol/kg, day 14) was 4.6, the Mean clinical score ([2]; Q5D SC 100 nmol/kg, day 15) was 4.9 and the Mean clinical score ([2]; Q5D SC 100 nmol/kg, day 16) was 5.4. It also gave a Mean clinical score ([2]; Q5D SC 100 nmol/kg, day 17) of 5.8, a Mean clinical score ([2]; Q5D SC 100 nmol/kg, day 18) of 6.2 and a Mean clinical score ([2]; Q5D SC 100 nmol/kg, day 19) of 6.4. For the same substance, the Mean clinical score ([2]; Q5D SC 100 nmol/kg, day 20) was 6.9, the Mean clinical score ([2]; Q5D SC 100 nmol/kg, day 21) was 7.1 and the Mean clinical score ([2]; Q5D SC 100 nmol/kg, day 22) was 7.6. For the same substance, the Mean clinical score ([2]; Q5D SC 100 nmol/kg, day 24) was 8.2, the Mean clinical score ([2]; Q5D SC 100 nmol/kg, day 26) was 8.5 and the Mean clinical score ([2]; Q5D SC 100 nmol/kg, day 28) was 9.0. The Mean clinical score ([2]; Q5D SC 100 nmol/kg, day 30) was 9.4, the Mean clinical score ([2]; QD SC 100 nmol/kg, day 12) was 0.8 and the Mean clinical score ([2]; QD SC 100 nmol/kg, day 13) was 2.1. The Mean clinical score ([2]; QD SC 100 nmol/kg, day 14) was 4.3, the Mean clinical score ([2]; QD SC 100 nmol/kg, day 15) was 4.7 and the Mean clinical score ([2]; QD SC 100 nmol/kg, day 16) was 5.8. For the same substance, the Mean clinical score ([2]; QD SC 100 nmol/kg, day 17) was 6.0, the Mean clinical score ([2]; QD SC 100 nmol/kg, day 18) was 6.6 and the Mean clinical score ([2]; QD SC 100 nmol/kg, day 19) was 6.7. For the same substance, the Mean clinical score ([2]; QD SC 100 nmol/kg, day 20) was 7.0, the Mean clinical score ([2]; QD SC 100 nmol/kg, day 21) was 7.1 and the Mean clinical score ([2]; QD SC 100 nmol/kg, day 22) was 7.1. It also gave a Mean clinical score ([2]; QD SC 100 nmol/kg, day 24) of 6.9, a Mean clinical score ([2]; QD SC 100 nmol/kg, day 26) of 7.0 and a Mean clinical score ([2]; QD SC 100 nmol/kg, day 28) of 7.8. The Mean clinical score ([2]; QD SC 100 nmol/kg, day 30) was 8.4.
